Values of other authors in patent publication US11826586B2, “Method for dyeing keratin material, comprising the use of an organic C1-C6-alkoxy-silane and an alkalising agent” (Henkel AG & Co. KGaA, priority 2019, dated 2023).

Details: 25° C.

| Compound | solubility in water | solubility in water (in words) |
| --- | --- | --- |
| CCN(Cc1cccc(S(=O)(=O)O)c1)c1ccc(C(=C2C=CC(=[N+](CC)Cc3cccc(S(=O)(=O)O)c3)C=C2)c2ccccc2S(=O)(=O)[O-])cc1 [Acid Blue 9] | more than 20 % by weight |  |
| O=S(=O)(O)c1ccc(N=Nc2c(O)ccc3ccccc23)cc1 [Acid Orange 7, 4-[(2-hydroxy-1-naphthyl)azo]benzene sulphonate] | more than 7 g/L |  |
| O=[N+]([O-])c1cc([N+](=O)[O-])c2ccc(S(=O)(=O)O)cc2c1O [Acid Yellow 9, 8-hydroxy-5,7-dinitro-2-naphthalenesulfonic acid] | above 40 g/L |  |
| O=C(O)C1=NN(c2ccc(S(=O)(=O)O)cc2)C(=O)C1N=Nc1ccc(S(=O)(=O)O)cc1 (stereo not shown) [Acid Yellow 23, 4,5-dihydro-5-oxo-1-(4-sulfophenyl)-4-((4-sulfophenyl)azo)-1H-pyrazole-3-carboxylic acid] |  | highly soluble |
